Converted amounts (≈) assume the structure as drawn.
Key:
cIAP1 BIR3 = cIAP1 BIR3 (Homo sapiens (Human), UniProt Q13490); experiment: cIAP1 BIR3 binding assay (DELFIA), BIR3-SMAC peptide interaction; conditions: (S)-isomers; BIR3 domain 10 nM, SMAC peptide 10 nM; read-out: cIAP1 BIR-3 IC50
P450 2C19 = P450 2C19 (Homo sapiens (Human), UniProt P33261); experiment: Cytochrome P450 isoenzyme inhibition assay, hydroxylation of Mephenytoin; assay type: in vitro ADME; conditions: (S)-isomers; human liver microsomes, 37° C.
P450 2C8 = P450 2C8 (Homo sapiens (Human), UniProt P10632); experiment: Cytochrome P450 isoenzyme inhibition assay, deethylation of Amodiaquine; assay type: in vitro ADME; conditions: (S)-isomers; human liver microsomes, 37° C.
P450 2C9 = P450 2C9 (Homo sapiens (Human), UniProt P11712); experiment: Cytochrome P450 isoenzyme inhibition assay, hydroxylation of Diclofenac; assay type: in vitro ADME; conditions: (S)-isomers; human liver microsomes, 37° C.
P450 3A4 = P450 3A4 (Homo sapiens (Human), UniProt P08684); experiment: Cytochrome P450 isoenzyme inhibition assay, hydroxylation of Midazolam; assay type: in vitro ADME; conditions: (S)-isomers; human liver microsomes, 37° C.
[1] = Solubility measurement (DMSO solution precipitation method); assay type: physicochemical; conditions: aqueous buffer, kinetic from dmso stock; (S)-isomers; McIlvaine buffer pH 6.8, 24 h shaking at ambient temperature; read-out: Sol pH 6.8

SMILES | IC50 (cIAP1 BIR3) | IC50 (P450 2C19) | IC50 (P450 2C8) | IC50 (P450 2C9) | IC50 (P450 3A4) | solubility kinetic at 24 h [1]
CN[C@@H](C)C(=O)Nc1ccc(-c2c(-c3cccnc3OC)nc3cc(C)ccn23)c(C#Cc2ccc3c(C)nccc3c2)n1 [(S)-1, (2S)-N-{5-[2-(2-methoxypyridin-3-yl)-7-methylimidazo[1,2-a]pyridin-3-yl]-6-[2-(1-methylisoquinolin-6-yl)ethynyl]pyridin-2-yl}-2-(methyl-amino)propanamide] | 0.001 µM | > 50 µM | 11 µM | 38 µM | > 50 µM | 35 µg/mL (≈ 60.2 µM)
CN[C@@H](C)C(=O)Nc1ccc(-c2c(-c3cnc(C)nc3)nc3cc(C)ccn23)c(C#Cc2ccc3c(ccc(=O)n3C)c2)n1 [(S)-12, (2S)-N-{5-[7-methyl-2-(2-methylpyrimidin-5-yl)imidazo[1,2-a]-pyridin-3-yl]-6-[2-(1-methyl-2-oxo-1,2-dihydroquinolin-6-yl)-ethynyl]pyridin-2-yl}-2-(methylamino)-propanamide] | 0.002 µM | > 50 µM | > 50 µM | > 50 µM | > 50 µM | < 1 µg/mL
CN[C@@H](C)C(=O)Nc1ccc(-c2c(-c3cnn(C)c3)nc3cc(C)ccn23)c(C#Cc2ccc3c(C)nccc3c2)n1 [(S)-3, (2S)-N-{5-[7-methyl-2-(1-methyl-1H-pyrazol-4-yl)-imidazo[1,2-a]pyridin-3-yl]-6-[2-(1-methyl-isoquinolin-6-yl)-ethynyl]pyridin-2-yl}-2-(methylamino)-propanamide] | 0.001 µM | > 50 µM | 14 µM | > 50 µM | > 50 µM | 1 µg/mL (≈ 1.8 µM)
CN[C@@H](C)C(=O)Nc1ccc(-c2c(-c3cccnc3C)nc3cc(C)ccn23)c(C#Cc2ccc3c(C)nccc3c2)n1 [(S)-5, (2S)-N-{5-[7-methyl-2-(2-methylpyridin-3-yl)imidazo[1,2-a]-pyridin-3-yl]-6-[2-(1-methylisoquinolin-6-yl)ethynyl]pyridin-2-yl}-2-(methylamino)-propanamide] | 0.002 µM | > 50 µM | 1.3 µM | > 50 µM | > 50 µM | < 1 µg/mL
CN[C@@H](C)C(=O)Nc1ccc(-c2c(-c3cccnc3OC)nc3cc(Cl)ccn23)c(C#Cc2ccc3c(C)nccc3c2)n1 [(S)-15, (2S)-N-{5-[7-chloro-2-(2-methoxypyridin-3-yl)imidazo[1,2-a]-pyridin-3-yl]-6-[2-(1-methylisoquinolin-6-yl)ethynyl]pyridin-2-yl}-2-(methylamino)-propanamide] | 0.002 µM | 32 µM | 2.2 µM | 19 µM | > 50 µM | 20 µg/mL (≈ 33.2 µM)
CN[C@@H](C)C(=O)Nc1ccc(-c2c(-c3ccnc(OC)c3)nc3cc(C)ccn23)c(C#Cc2ccc3c(ccc(=O)n3C)c2)n1 [(S)-13, (2S)-N-{5-[2-(2-methoxypyridin-4-yl)-7-methylimidazo[1,2-a]pyridin-3-yl]-6-[2-(1-methyl-2-oxo-1,2-dihydroquinolin-6-yl)-ethynyl]pyridin-2-yl}-2-(methylamino)-propanamide] | 0.001 µM | – | 4.5 µM | > 50 µM | > 50 µM | < 1 µg/mL
CN[C@@H](C)C(=O)Nc1ccc(-c2c(-c3cncn3C)nc3cc(C)ccn23)c(C#Cc2ccc3c(C)nccc3c2)n1 [(S)-4, (2S)-N-{5-[7-methyl-2-(1-methyl-1H-imidazol-5-yl)-imidazo[1,2-a]pyridin-3-yl]-6-[2-(1-methyl-isoquinolin-6-yl)-ethynyl]pyridin-2-yl}-2-(methylamino)-propanamide] | 0.001 µM | 36 µM | 9.8 µM | 27 µM | > 50 µM | 39 µg/mL (≈ 70.3 µM)
CN[C@@H](C)C(=O)Nc1ccc(-c2c(-c3ccc(OC)nc3)nc3cc(C)ccn23)c(C#Cc2ccc3c(C)nccc3c2)n1 [(S)-9, (2S)-N-{5-[2-(6-methoxypyridin-3-yl)-7-methylimidazo[1,2-a]pyridin-3-yl]-6-[2-(1-methylisoquinolin-6-yl)ethynyl]pyridin-2-yl}-2-(methyl-amino)propanamide] | 0.001 µM | > 50 µM | 15 µM | > 50 µM | > 50 µM | 2 µg/mL (≈ 3.44 µM)
CN[C@@H](C)C(=O)Nc1ccc(-c2c(-c3cccnc3OC)nc3cc(C)ccn23)c(C#Cc2ccc3c(ccc(=O)n3C)c2)n1 [(S)-10, (2S)-N-{5-[2-(2-methoxypyridin-3-yl)-7-methylimidazo[1,2-a]pyridin-3-yl]-6-[2-(1-methyl-2-oxo-1,2-dihydroquinolin-6-yl)-ethynyl]pyridin-2-yl}-2-(methylamino)-propanamide] | 0.001 µM | > 50 µM | 9.3 µM | – | > 50 µM | 35 µg/mL (≈ 58.6 µM)
CN[C@@H](C)C(=O)Nc1ccc(-c2c(-c3ccnc(C)c3)nc3cc(C)ccn23)c(C#Cc2ccccc2)n1 [(S)-11, (2S)-N-{5-[7-methyl-2-(2-methylpyridin-4-yl)imidazo[1,2-a]-pyridin-3-yl]-6-(2-phenylethynyl)pyridin-2-yl}-2-(methyl-amino)propanamide] | 0.001 µM | 14 µM | 15 µM | > 50 µM | 46 µM | –
CN[C@@H](C)C(=O)Nc1ccc(-c2c(-c3ccc(OC)nc3)nc3cc(C)ccn23)c(C#Cc2ccc3c(ccc(=O)n3C)c2)n1 [(S)-14, (2S)-N-{5-[2-(6-methoxypyridin-3-yl)-7-methylimidazo[1,2-a]pyridin-3-yl]-6-[2-(1-methyl-2-oxo-1,2-dihydroquinolin-6-yl)-ethynyl]pyridin-2-yl}-2-(methylamino)-propanamide] | 0.001 µM | > 50 µM | > 50 µM | > 50 µM | > 50 µM | < 1 µg/mL
CN[C@@H](C)C(=O)Nc1ccc(-c2c(-c3ccnc(OC)c3)nc3cc(C)ccn23)c(C#Cc2ccc3c(C)nccc3c2)n1 [(S)-8, (2S)-N-{5-[2-(2-methoxypyridin-4-yl)-7-methylimidazo[1,2-a]pyridin-3-yl]-6-[2-(1-methylisoquinolin-6-yl)ethynyl]pyridin-2-yl}-2-(methyl-amino)propanamide] | 0.001 µM | 38 µM | 1.6 µM | > 50 µM | > 50 µM | < 1 µg/mL
CN[C@@H](C)C(=O)Nc1ccc(-c2c(-c3cccnc3OC)nc3ccccn23)c(C#Cc2ccc3c(C)nccc3c2)n1 [(S)-16, (2S)-N-{5-[2-(2-methoxypyridin-3-yl)imidazo[1,2-a]-pyridin-3-yl]-6-[2-(1-methylisoquinolin-6-yl)ethynyl]pyridin-2-yl}-2-(methylamino)-propanamide] | – | > 50 µM | 3.4 µM | 21 µM | > 50 µM | 17 µg/mL (≈ 29.9 µM)
CN[C@@H](C)C(=O)Nc1ccc(-c2c(-c3ccc(C)nc3)nc3cc(C)ccn23)c(C#Cc2ccc3c(C)nccc3c2)n1 [(S)-6, (2S)-N-{5-[7-methyl-2-(6-methylpyridin-3-yl)imidazo[1,2-a]-pyridin-3-yl]-6-[2-(1-methylisoquinolin-6-yl)ethynyl]pyridin-2-yl}-2-(methylamino)-propanamide] | 0.001 µM | > 50 µM | 25 µM | > 50 µM | > 50 µM | 1 µg/mL (≈ 1.77 µM)
